Legend:
Type in all cases: cell-based
[1] = test system: T-Rex 293 cells lacking increased expression of estrogen receptor alpha protein; experiment: Cellular growth inhibition assay, T-Rex 293 cells, (−) doxycycline; conditions: T-REx-293, 72 h, Table 7-A; T-Rex 293 cells without doxycycline (lacking increased ERα expression); 72 hours; CellTiter-Glo; read-out: (−) Dox GI50
Procedure, shortened: (§1)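 Growth of a doxycycline-inducible ERα T-Rex 293 clone, induced or not with 3 ng/mL doxycycline, was followed for 72 h with test compound in hormone-depleted medium. CellTiter-Glo luminescence gave GI50.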

[2] = test system: T-Rex 293 cells having increased expression of estrogen receptor alpha protein; experiment: Cellular growth inhibition assay, T-Rex 293 cells, (+) doxycycline; conditions: T-REx-293, 72 h, Table 7-A; T-Rex 293 cells with doxycycline (increased ERα expression); 72 hours; CellTiter-Glo; read-out: (+) Dox GI50
Procedure, shortened: as §1

[3] = test system: MCF7 cells (ATCC #HTB-22); experiment: Cellular growth inhibition assay, MCF7 cells purchased from ATCC; conditions: Homo sapiens, MCF7, 144 h, Table 8-A; MCF7 cells purchased from ATCC; six days; CellTiter-Glo; read-out: GI50
Procedure, shortened: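 GI50 values come from a four-parameter fit of CellTiter-Glo 2.0 luminescence after six days of compound exposure at 37° C. Seeding density depended on the source: 225 cells/well for ECACC MCF7, 1,500 for ATCC. Medium was RPMI 1640 with 10% FBS and 0.2 U/ml insulin.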

| Structure (SMILES) | GI50 [1] [nM] | GI50 [2] [nM] | GI50 [3] [nM] |
| --- | --- | --- | --- |
| Cc1sc2c(c1C)C(c1ccc(N3CC(O)(CN4CCN(CC5CN(c6ccc([C@@H]7c8ccc(O)cc8CC[C@@H]7c7ccccc7)cc6)C5)CC4)C3)cc1)=N[C@@H](Cc1ncco1)c1nnc(C)n1-2 [III-181] | 50 to 500 | < 50 | < 50 |
| Cc1sc2c(c1C)C(c1ccc(N3CCC(O)(CN4CCN(c5ccc([C@@H]6c7ccc(O)cc7CC[C@@H]6c6ccc(F)cc6F)cc5)CC4)CC3)cc1)=N[C@@H](C)c1nnc(C)n1-2 [III-182] | 500 to 2500 | < 50 | 50 to 500 |
| Cc1sc2c(c1C)C(c1ccc(N3CCC(O)(CN4CCN(c5ccc([C@H]6c7ccc(O)cc7CC[C@H]6c6ccc(F)cc6F)cc5)CC4)CC3)cc1)=N[C@@H](C)c1nnc(C)n1-2 [III-183] | 500 to 2500 | < 50 | 50 to 500 |
| Cc1sc2c(c1C)C(c1ccc(N3CCC(O)(CN4CCN(c5ccc([C@H]6c7ccc(O)cc7CC[C@H]6c6ccc(F)cc6)cc5)CC4)CC3)cc1)=N[C@@H](C)c1nnc(C)n1-2 [III-184] | 50 to 500 | < 50 | 50 to 500 |
| Cc1sc2c(c1C)C(c1ccc(N3CCC(O)(CN4CCN(c5ccc([C@@H]6c7ccc(O)cc7CC[C@@H]6c6ccc(F)cc6)cc5)CC4)CC3)cc1)=N[C@@H](C)c1nnc(C)n1-2 [III-185] | 500 to 2500 | < 50 | < 50 |
| Cc1sc2c(c1C)C(c1ccc(N3CCC(O)(CN4CCN(c5cc(F)c([C@@H]6c7ccc(O)cc7CC[C@@H]6c6ccccc6)c(F)c5)CC4)CC3)cc1)=N[C@@H](C)c1nnc(C)n1-2 [III-186] | 500 to 2500 | < 50 | < 50 |
| Cc1sc2c(c1C)C(c1ccc(N3CCC(O)(CN4CCN(c5cc(F)c([C@H]6c7ccc(O)cc7CC[C@H]6c6ccccc6)c(F)c5)CC4)CC3)cc1)=N[C@@H](C)c1nnc(C)n1-2 [III-187] | 50 to 500 | < 50 | 50 to 500 |
| Cc1sc2c(c1C)C(c1ccc(N3CCC(O)(CN4CCN(c5ccc([C@@H]6c7ccc(C(=O)O)cc7CC[C@@H]6c6ccccc6)cc5)CC4)CC3)cc1)=N[C@@H](C)c1nnc(C)n1-2 [III-188] | 50 to 500 | < 50 | 50 to 500 |
| Cc1sc2c(c1C)C(c1ccc(N3CCC(O)(CN4CCN(c5ccc([C@H]6c7ccc(C(=O)O)cc7CC[C@H]6c6ccccc6)cc5)CC4)CC3)cc1)=N[C@@H](C)c1nnc(C)n1-2 [III-189] | > 2500 | > 2500 | 50 to 500 |
| Cc1sc2c(c1C)C(c1ccc(N3CCC4(CCN(CC5CCN(c6ccc([C@@H]7c8ccc(O)cc8CC[C@@H]7c7ccccc7)cc6)CC5)CC4)C3)cc1)=N[C@@H](C)c1nnc(C)n1-2 [III-190] | 500 to 2500 | < 50 | 50 to 500 |
| Cc1sc2c(c1C)C(c1ccc(N3CCC4(CCN(CC5CCC(c6ccc([C@@H]7c8ccc(O)cc8CC[C@@H]7c7ccccc7)cc6)CC5)C4)CC3)cc1)=N[C@@H](C)c1nnc(C)n1-2 (stereo partly drawn) [III-191] | 50 to 500 | < 50 | 50 to 500 |
| Cc1sc2c(c1C)C(c1ccc(N3CCC(O)(CN4CCN(c5ccc([C@H]6c7ccc(O)cc7CC[C@H]6c6ccc(F)cc6F)cc5)CC4)CC3)cc1)=N[C@H](Cc1ncco1)c1nnc(C)n1-2 [III-192] | > 2500 | > 2500 | > 2500 |
| Cc1sc2c(c1C)C(c1ccc(N3CCC(O)(CN4CCN(c5ccc([C@@H]6c7ccc(O)cc7CC[C@@H]6c6ccc(F)cc6F)cc5)CC4)CC3)cc1)=N[C@H](Cc1ncco1)c1nnc(C)n1-2 [III-193] | 500 to 2500 | 50 to 500 | 50 to 500 |
| Cc1sc2c(c1C)C(c1ccc(N3CCC(O)(CN4CCN(c5cc(F)c([C@H]6c7ccc(O)cc7CC[C@H]6c6ccccc6)c(F)c5)CC4)CC3)cc1)=N[C@@H](Cc1ncco1)c1nnc(C)n1-2 [III-194] | > 2500 | > 2500 | > 2500 |
| Cc1sc2c(c1C)C(c1ccc(N3CCC(O)(CN4CCN(c5cc(F)c([C@H]6c7ccc(O)cc7CC[C@H]6c6ccccc6)c(F)c5)CC4)CC3)cc1)=N[C@H](Cc1ncco1)c1nnc(C)n1-2 [III-195] | > 2500 | > 2500 | 500 to 2500 |

From patent publication US12558428B2, “Heterobifunctional compounds and their use in treating disease” (Halda Therapeutics OpCo, Inc., priority 2024, dated 2026)
